PubChem BioAssay AID1918935 (Molecular Pharmacology Branch, DTP, NCI, 2023)

Tested on: 324938-238-R-J1-PDC complex spheroid viability
Assay: Anticancer human tumor 324938-238-R-J1-PDC patient-derived bladder carcinoma cell line growth inhibition
Conditions: for IC50: curve of first compound; for viability, T/C: stronger effect = lower value
How it was run: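 Multicellular complex spheroids of tumor cells with human endothelial cells (HUVEC) and mesenchymal stem cells; the LSD1 inhibitor iadademstat was combined with standard-of-care or investigational agents. Top concentration at or near clinical Cmax, half-log dilutions; final DMSO ≤0.25%.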

[1] = second compound 0.1 µM, first compound 0.00316 µM
[2] = second compound 0.1 µM, first compound 0.01 µM
[3] = second compound 0.1 µM, first compound 0.0316 µM
[4] = second compound 0.1 µM, first compound 0.1 µM
[5] = second compound 0.1 µM, first compound 0.316 µM
[6] = second compound 0.1 µM, first compound 1 µM
[7] = second compound 0.316 µM, first compound 0.00316 µM
[8] = second compound 0.316 µM, first compound 0.01 µM
[9] = second compound 0.316 µM, first compound 0.0316 µM
[10] = second compound 0.316 µM, first compound 0.1 µM
[11] = second compound 0.316 µM, first compound 0.316 µM
[12] = second compound 0.316 µM, first compound 1 µM
[13] = second compound 1 µM, first compound 0.00316 µM
[14] = second compound 1 µM, first compound 0.01 µM
[15] = second compound 1 µM, first compound 0.0316 µM
[16] = second compound 1 µM, first compound 0.1 µM
[17] = second compound 1 µM, first compound 0.316 µM
[18] = second compound 1 µM, first compound 1 µM
[19] = second compound 3.16 µM, first compound 0.00316 µM
[20] = second compound 3.16 µM, first compound 0.01 µM
[21] = second compound 3.16 µM, first compound 0.0316 µM
[22] = second compound 3.16 µM, first compound 0.1 µM
[23] = second compound 3.16 µM, first compound 0.316 µM
[24] = second compound 3.16 µM, first compound 1 µM
[25] = second compound 10 µM, first compound 0.00316 µM
[26] = second compound 10 µM, first compound 0.01 µM
[27] = second compound 10 µM, first compound 0.0316 µM
[28] = second compound 10 µM, first compound 0.1 µM
[29] = second compound 10 µM, first compound 0.316 µM
[30] = second compound 10 µM, first compound 1 µM
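Further: spheroids also contain HUVEC and human MSCs and agents combined with iadademstat; spheroids exposed to agents for 7 days before readout.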

SMILES | IC50 (second compound 0.1 µM) [nM] | IC50 (second compound 0.316 µM) [nM] | IC50 (second compound 1 µM) [nM] | IC50 (second compound 3.16 µM) [nM] | IC50 (second compound 10 µM) [nM] | viability, T/C [1] [%] | viability, T/C [2] [%] | viability, T/C [3] [%] | viability, T/C [4] [%] | viability, T/C [5] [%] | viability, T/C [6] [%] | viability, T/C [7] [%] | viability, T/C [8] [%] | viability, T/C [9] [%] | viability, T/C [10] [%] | viability, T/C [11] [%] | viability, T/C [12] [%] | viability, T/C [13] [%] | viability, T/C [14] [%] | viability, T/C [15] [%] | further results
Nc1ncn(C2CC(O)C(CO)O2)c(=O)n1 (stereo not given) + NC1CC1c1ccc(-c2cccc(O)c2)cc1 | 311 | 143 | 237 | 227 | 258 | 95.1 | 90.3 | 79.2 | 62.8 | 49.7 | 43.9 | 73.6 | 74.5 | 67.6 | 52.4 | 44.9 | 41 | 70.4 | 70.9 | 62.8 | viability, T/C [16]: 57%; viability, T/C [17]: 47.9%; viability, T/C [18]: 41.2%; viability, T/C [19]: 74.7%; viability, T/C [20]: 57.7%; viability, T/C [21]: 68.5%; viability, T/C [22]: 56.3%; viability, T/C [23]: 45.4%; viability, T/C [24]: 39.3%; viability, T/C [25]: 63.3%; viability, T/C [26]: 73.7%; viability, T/C [27]: 69.9%; viability, T/C [28]: 57.6%; viability, T/C [29]: 49.7%; viability, T/C [30]: 41.4%
COc1cc(Nc2ncc3c(n2)-c2ccc(Cl)cc2C(c2c(F)cccc2OC)=NC3)ccc1C(=O)O + NC1CC1c1ccc(-c2cccc(O)c2)cc1 | 10.7 | 9.45 | 11.9 | 13.7 | 10.8 | 76.1 | 51 | 28.1 | 13.9 | 18.2 | 13.9 | 69.5 | 48.3 | 30 | 16 | 15.8 | 14.8 | 63 | 54.3 | 26.2 | viability, T/C [16]: 16.5%; viability, T/C [17]: 17.6%; viability, T/C [18]: 15.1%; viability, T/C [19]: 62.6%; viability, T/C [20]: 57.6%; viability, T/C [21]: 30%; viability, T/C [22]: 18.1%; viability, T/C [23]: 18.8%; viability, T/C [24]: 16.5%; viability, T/C [25]: 57.4%; viability, T/C [26]: 51.2%; viability, T/C [27]: 29.5%; viability, T/C [28]: 19.4%; viability, T/C [29]: 19.7%; viability, T/C [30]: 25.8%
